# Biological target: T1, Monoacylglycerol lipase ABHD6 (Mus musculus, UniProt Q8R2Y0)
# T1 sequence (Q8R2Y0 whole entry): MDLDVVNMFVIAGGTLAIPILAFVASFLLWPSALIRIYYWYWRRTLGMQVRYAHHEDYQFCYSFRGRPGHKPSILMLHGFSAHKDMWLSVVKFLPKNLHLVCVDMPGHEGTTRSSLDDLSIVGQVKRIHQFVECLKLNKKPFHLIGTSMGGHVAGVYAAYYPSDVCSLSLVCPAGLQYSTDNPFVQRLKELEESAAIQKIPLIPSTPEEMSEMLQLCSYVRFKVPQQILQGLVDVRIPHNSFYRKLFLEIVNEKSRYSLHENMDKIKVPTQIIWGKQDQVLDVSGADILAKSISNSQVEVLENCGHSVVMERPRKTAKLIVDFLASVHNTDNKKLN
# Test: In Vitro Competitive Activity-Based Protein Profiling
# Procedure: Proteomes (mouse brain membrane fraction or cell lysates) (50 μL, 1.0 mg/mL total protein concentration) were preincubated with varying concentrations of inhibitors at 37° C. After 30 min, FP Rh (1.0 μL, 50 μM in DMSO) was added and the mixture was incubated for another 30 min at 37° C. Reactions were quenched with SDS loading buffer (50 μL-4×) and run on SDS-PAGE.
smiles,measurement,value
"O=C(OC(C(F)(F)F)C(F)(F)F)N1CCC2(CCCN2Cc2ccc(OCCN3CCOCC3)cc2)CC1 [US10030020, Example 14]",IC50,> 1000 nM

# From BindingDB's records for patent US10030020 (ABIDE THERAPEUTICS, INC., 2018)
